The results in this text go back to BindingDB's records for doi:10.1021/acsmedchemlett.7b00140 (Pfizer, 2017).

A value given as a limit tells only on which side of the number the result lay.

The target in this test is Small conductance calcium-activated potassium channel protein 2, KCNN2 (Homo sapiens) (UniProt Q9H2S1). Put plainly: Binding affinity to SK2 (unknown origin).
Sequence of Small conductance calcium-activated potassium channel protein 2, KCNN2 (Homo sapiens) (Q9H2S1 whole entry, looked up): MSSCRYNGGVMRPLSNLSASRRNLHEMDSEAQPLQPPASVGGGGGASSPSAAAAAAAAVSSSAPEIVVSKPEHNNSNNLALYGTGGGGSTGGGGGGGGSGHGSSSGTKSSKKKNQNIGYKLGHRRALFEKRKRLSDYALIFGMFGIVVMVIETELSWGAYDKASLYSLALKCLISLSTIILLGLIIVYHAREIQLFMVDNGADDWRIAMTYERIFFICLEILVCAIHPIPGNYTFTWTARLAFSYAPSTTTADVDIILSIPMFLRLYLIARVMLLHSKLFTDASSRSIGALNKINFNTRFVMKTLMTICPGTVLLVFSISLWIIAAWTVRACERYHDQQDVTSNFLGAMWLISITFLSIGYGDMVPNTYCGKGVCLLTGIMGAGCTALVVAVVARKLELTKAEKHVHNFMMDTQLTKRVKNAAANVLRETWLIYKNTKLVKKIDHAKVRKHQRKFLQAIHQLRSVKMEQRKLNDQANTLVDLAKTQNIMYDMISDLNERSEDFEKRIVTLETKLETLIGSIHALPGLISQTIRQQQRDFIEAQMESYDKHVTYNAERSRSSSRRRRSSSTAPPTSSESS

The EC50 is the concentration at which the effect is half-maximal. Take `N#Cc1ccc(-c2n[nH]c3cc(OC(F)(F)F)ccc23)cc1`: the EC50 was > 10 µM.
For `FC(F)(F)c1ccc2c(Nc3ccc(Cl)nc3)n[nH]c2c1`, the EC50 was > 10 µM.
